Data reported in patent US20240261261A1, “NEW FORMULATION FOR INJECTION COMPRISING 1-(5-(2,4-DIFLUOROPHENYL)-1-((3-FLUOROPHENYL)SULFONYL)-4-METHOXY-1H-PYRROL-3-YL)-N-METHYLMETHANAMINE” (DAEWOONG PHARMACEUTICAL CO., LTD., priority 2021, published 2024).

Assay: Water solubility
Assay type: physicochemical
Details: aqueous buffer, pH 6.8, the substance or its hydrochloride

solubility: 2170 µg/mL
SMILES: CNCc1cn(S(=O)(=O)c2cccc(F)c2)c(-c2ccc(F)cc2F)c1OC [Chemical Formula 1, 1-(5-(2,4-difluorophenyl)-1-((3-fluorophenyl)sulfonyl)-4-methoxy-1H-pyrrol-3-yl)-N-methylmethanamine]
